Source: patent publication US7557133B2, “Caspase inhibitors containing isoxazoline ring” (LG Life Sciences Ltd., priority 2003, dated 2009)
Marks after values point to notes of the source that are not given here.

Legend:
hepatic cell apoptosis = assay: Inhibitory effect against apoptosis during the bile stagnation in SD rats (TUNEL staining); assay type: in vivo, rat; settings: for TUNEL positive cells/field: BDL rats
Method: Male Spargue-Dawley rats (6 weeks, Korea Biolink) were kept under the conditions of 22 °C, 55% of relative humidity, and light-darkness cycle of 12 hours. Food and water were supplied ad libitum. For the ligation of biliary duct, the rats were anesthetized by inhalation of 1% halothane, abdomen of the rats were cut open, the distal and proximal biliary ducts were ligated, the part between the ligation sites were cut, 2 ml of saline was injected, and sutured.
Test compound (Iii) was orally administered in a dosage of 3 mg/kg or 10 mg/kg twice a day. That is, the compound was dissolved in a cosolvent (PEG400:ethanol:Tween80=15:7.5:2.5), diluted with phosphate buffer (pH 7.4) by five times, and administered. To the control group was administered the solution without the test compound. The administration was made for 1 week after 1 week from the ligation of biliary duct.
The test compound (Iii) was administered to the SD rats whose biliary ducts were ligated according to the procedure as Step 1 of Experiment 3. After 2 weeks from the operation, the rats were sacrificed. The livers were fixed by 10% neutral formalin and a paraffin section of 5 μm thickness was prepared. TUNEL staining was carried out using ApopTag Peroxidase In Situ Apoptosis Detection kit (Chemicon) according to the manufacturer's instruction. More than 10 sites of the TUNEL stained liver tissue were photographed in 200 magnifications without any overlap, of which result was shown in FIG. 2. The number of cells suffering apoptosis in each test group was counted and represented in the following Table 2. In the following table, the Sham operation means the case where the biliary duct was exposed but not ligated, and the BDL operation means the case where only the vehicle was administered after the ligation of biliary duct.

rheumatic arthritis = assay: Therapeutic effect for rheumatic arthritis in rats (type II collagen); assay type: in vivo, rat
Method: Female Lewis rats (7 weeks, Charles River, Japan) were kept under the conditions of 22 °C, 55% of relative humidity, and light-darkness cycle of 12 hours. Food and water were supplied ad libitum. Type II collagen (bovine) was dissolved in 0.05M acetic acid in a concentration of 2 mg/ml at 4[…], and the same amount of Complete Freund's adjuvant was added to emulsify the solution at 4[…]. 0.1 ml of thus emulsified solution was subcutaneously injected into the rattail of the Lewis rats. After 7 days, the emulsified solution was injected again in the same manner. From the date on which the second emulsified solution was injected, vehicle (a mixture of PEG400:ethanol:Tween80=15:7.5:2.5 was diluted by ten times with phosphate buffer) wherein the test compound is dissolved or the vehicle alone was orally administered into the rats every day. On Day 14 from the first injection of the collagen-containing emulsified solution, the right rear foot volume was measured again by plethysmometer (see Table 4). The edema inhibition (%) was determined by the following Equation 3. […]
Further, p-value was calculated by Student t-test from the increased foot volume on Day 14 to confirm the significance.

[1] = system: LPS-induced acute hepatitis; assay: Therapeutic effect for LPS-induced acute hepatitis in mouse (plasma ALT); assay type: in vivo
Method: Female Balb/c mice (6 weeks, Charles River Laboratory, Osaka, Japan) were kept under the conditions of 22 °C, 55% of relative humidity, and light-darkness cycle of 12 hours. Food and water were supplied ad libitum. In pyrogen-free saline were dissolved LPS (lipopolysaccaride) and D-galactosamine in concentrations of 0.4 mg/ml and 280 mg/ml, respectively, and their 1:1 mixture was injected to mice in the amount of 5 ml/kg. Immediately after the injection of LPS and D-galactosamine, vehicle (a mixture of PEG400:ethanol:Tween80=15:7.5:2.5 was diluted by five times with saline) wherein the test compound is dissolved or the vehicle alone was intraperitoneally injected into the mice. After 8 hours from the drug injection, blood samples were obtained from their hearts.
The plasma ALT activity was determined for the blood samples obtained in Step 1 using ALT assay kit (Asan Pharm. Co., Seoul, Korea) according to the manufacturer's instruction.

[2] = Solubility (pH = 7.44 phosphate); assay type: physicochemical
caspase-8 = target: T1, caspase-8 (Homo sapiens, UniProt Q14790); assay: Caspase-8 inhibitory effect (fluorescent substrate AcDEVD-AFC); assay type: biochemical
T1 construct: p10 and p20 subunits (Thornberry, N. A. et al, Nature, 1992, 356, 768) were expressed in E. coli; made in house; host or cells: E. coli
T1 sequence (Q14790 217-374 limits assumed, species assumed): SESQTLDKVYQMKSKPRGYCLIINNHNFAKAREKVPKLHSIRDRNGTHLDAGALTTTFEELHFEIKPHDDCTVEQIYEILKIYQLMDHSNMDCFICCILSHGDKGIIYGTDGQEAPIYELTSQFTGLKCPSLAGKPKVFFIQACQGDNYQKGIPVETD
T1 sequence (Q14790 385-479 limits assumed, species assumed): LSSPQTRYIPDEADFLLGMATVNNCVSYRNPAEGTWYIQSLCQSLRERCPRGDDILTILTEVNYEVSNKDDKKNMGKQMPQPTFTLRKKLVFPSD
How it was run: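 E. coli–expressed p10/p20 caspase-8, 2.1 nM, with 50 μM Ac-DEVD-AFC at 25 °C in 50 mM HEPES pH 7.50, sucrose, CHAPS, NaCl, EDTA, 10 mM DTT over various inhibitor concentrations. Initial rates by fluorescence (ex 405 / em 505); Ki from Lineweaver-Burk plot, Kobs from time-course cleavage equation.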

CC(C)[C@@]1(C(=O)NC(CC(=O)O)C(=O)CF)CC(c2nccc3ccccc23)=NO1 (stereo partly drawn) [Iii, 5-Fluoro-3-({[(5R)-5-isopropyl-3-(1-isoquinolinyl)-4,5-dihydro-5-isoxazolyl]carbonyl}amino)-4-oxopentanoic acid]
TUNEL positive cells/field (hepatic cell apoptosis; 3 mg/kg orally twice a day for 1 week): 4.12 ± 1.3 TUNEL positive cells/field
TUNEL positive cells/field (hepatic cell apoptosis; 10 mg/kg orally twice a day for 1 week): 5.66 ± 1.34 TUNEL positive cells/field
inhibition of apoptosis (TUNEL staining) (hepatic cell apoptosis; bile stagnation model, rats): 75%
Foot volume (ml) Day 14 Average (rheumatic arthritis; 10 mg/kg oral every day, Day 14): 1.394* ml
Foot volume (ml) Day 0 Average (rheumatic arthritis; 10 mg/kg oral group, Day 0): 1.134 mL
increased activity against LPS-induced acute hepatitis model (mouse) compared with LB84068MP ([1]; in vivo): about 100 times
ED50 ([1]; ip, LPS and D-galactosamine, intraperitoneally injected, plasma ALT after 8 hours, read-out: ED50 (LPS + Gal)): 0.01 mg/kg
solubility compared with LB84068MP [2]: improved solubility
increased inhibitory activity against caspase-8 compared with LB84068MP (caspase-8): ≥ 10 times
kinact/KI (caspase-8; pH 7.5, 25° C., 50 μM AcDEVD-AFC, 2.1 nM caspase-8, read-out: Caspase-8 Kobs/[I] (converted)): 217000 M⁻¹ s⁻¹
